What was measured:
LDL = LDL anti-oxidative activity, Cu-mediated LDL-oxidation, TBA method; type: biochemical, human; settings: CuSO4, 37° C., 4 hours, MDA by TBA; read-out: LDL-oxidation inhibitory activity (IC50)
Protocol: Cu^2+ has been known to induce LDL-oxidation (Cu-mediated LDL-oxidation). In this invention, dialdehyde, the oxide of unsaturated fatty acid, generated during LDL-oxidation was measured by TBA (thiobarbituric acid) method to investigate the anti-oxidative activity of the pterocarpan compound isolated from soybean leaves (Packer, L. Ed. (1994) Methods in Enzymology Vol. 234, Oxygen radicals in biological systems Part D. Academic press, San Diego).
Three hundred (300) ml of human plasma were centrifuged at 100,000×g for 24 hours to remove floating VLDL/chylomicron layer in upper part. The specific gravity of the remaining solution was adjusted to […], followed by re-centrifugation at 100,000×g for 24 hours, and 25 ml of the floating LDL (1.5-2.5 mg protein/ml) in upper layer was separated.
Twenty (20) μl of the separated LDL (protein conc. 50-100 μg/ml) was mixed with 210 μl of 10 mM PBS, to which 10 μl of each of the pterocarpan compounds represented by Formula 2-Formula 5 of the present invention was added respectively.
The pterocarpan compounds were dissolved in DMSO, which were further diluted properly for the experiment. In this assay, the negative control was used the DMSO only, while the positive control was used a known LDL-antioxidant, probucol.
Ten (10) μl of 0.25 mM CuSO4 was added to the above reaction mixture, followed by reaction at 37° C. for 4 hours. The reaction was terminated by adding 1 ml of 20% trichloroacetic acid (TCA) solution. One (1) ml of 0.67% thiobarbituric acid (TBA) dissolved in 0.05 N NaOH solution was added thereto, followed by stirring for 10 seconds. Then, the reaction mixture was heated at 95° C. for 5 minutes to induce color development. The solution was cooled down with iced water and centrifuged at 3,000 rpm for 5 minutes to separate supernatant. The amount of malondialdehyde (MDA) generated by the color development was calculated by measuring optical density at 540 nm (OD540) with UV-VIS Spectrophotometer.
PBS standard solution containing 0-10 nmol MDA was prepared by […] with tetramethoxypropane malonaldehyde bis (dimethylacetal) stock solution. Color development was induced with the standard solution, followed by measuring OD540. The generated MDA was quantified by using the standard curve in experiments with the pterocarpan compound of the present invention.

hACAT-1 = molecular target: T1, hACAT-1 (Homo sapiens, UniProt P35610); assay: hACAT inhibitory activity, microsome fraction of Hi5 cells, [1-14C] oleoyl-CoA substrate; type: biochemical; settings: for inhibition at 100 µM: read-out: Inhibitory activity at 100 μM (%) hACAT1
T1 construct: made in house; host or cells: Hi5 insect cells (baculovirus; virus produced in sf9), microsome fraction
T1 sequence (P35610 1-550): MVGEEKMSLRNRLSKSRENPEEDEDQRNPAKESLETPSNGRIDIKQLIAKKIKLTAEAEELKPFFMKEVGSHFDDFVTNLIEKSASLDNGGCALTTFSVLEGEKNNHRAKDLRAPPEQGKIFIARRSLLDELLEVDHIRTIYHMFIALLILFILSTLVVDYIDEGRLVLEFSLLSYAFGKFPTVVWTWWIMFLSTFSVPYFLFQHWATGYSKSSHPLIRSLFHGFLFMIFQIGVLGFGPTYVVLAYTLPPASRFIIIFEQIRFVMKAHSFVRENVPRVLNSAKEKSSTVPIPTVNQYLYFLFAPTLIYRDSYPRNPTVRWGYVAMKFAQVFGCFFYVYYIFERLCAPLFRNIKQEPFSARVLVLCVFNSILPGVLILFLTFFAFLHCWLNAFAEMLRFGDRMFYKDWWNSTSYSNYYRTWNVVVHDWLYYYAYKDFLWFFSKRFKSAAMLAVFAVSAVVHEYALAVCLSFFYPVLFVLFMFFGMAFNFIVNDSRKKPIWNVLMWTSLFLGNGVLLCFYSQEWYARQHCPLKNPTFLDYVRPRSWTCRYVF
Protocol: (§1) cDNA of each hACAT-1 and hACAT-2 obtained by human liver cDNA library screening was inserted into baculovirus vector, which was then introduced into the insect cell sf9 to produce target virus. The recombinant virus of each hACAT-1 and hACAT-2 was separated by plaque purification and then amplified three times to increase titer of viral stock.
(§2) To separate microsome fractions from the cultured Hi5 cells over-expressing hACAT-1 and hACAT-2, centrifugation was performed at 500 rpm for 15 minutes. The collected cells were lysed by quick-freezing/quick-thawing in hypotonic buffer, followed by ultracentrifugation at 100,000 rpm for one hour. The obtained microsome fractions were suspended in hypotonic buffer to make the protein concentration to be 8 mg/ml, which was stored in −70° C. freezer until use.
(§3) Human ACAT (hACAT) activity was measured by the method of Brecher & Chan (P. Brecher and C. Chan, Biochem. Biophys. Acta, 1980, 617: 458) with slight modification using [1-^14C] oleoyl-CoA (56.0 ρCi/μmol; Amersham) as a substrate. 10 μl of each of the pterocarpan compounds represented by Formula 2-Formula 5 obtained in Example 1 in dimethylsulfoxide (DMSO) was mixed with 4.0 μl of the microsome solution obtained in step 1, 20.0 μl a of assay buffer (0.5 M KH2PO4, 10 mM DTT, pH 7.4; Sigma), 15.0 μl of bovine serum albumin (BSA, stock solution conc. 40 mg/ml; Sigma), 2.0 μl of cholesterol (stock solution conc. 20 mg/ml; Sigma), and 41.0 μl of distilled water, followed by pre-reaction at 37° C. for 15 minutes. In this assay, the negative control was used the DMSO alone, and the positive control was used a known ACAT inhibitor, oleic acid anilide.
(§4) Eight (8) μl of [1-^14C] oleoyl-CoA (0.05 μCi, final conc. 10.0 μM) was added to the above reaction mixture, followed by reaction at 37° C. for 30 minutes. The reaction was terminated by adding 1 ml of isopropanol:heptane mixed solution (4:1(v/v)). Six hundred (600) μl of heptane and 200 μl of 0.1 M KH2PO4 (pH 7.4) were added thereto and the reaction mixture was vortexed vigorously and centrifuged at 300 rpm for 5 minutes. The obtained upper phase (100 μl) was added in a scintillation vial, to which 4 ml of scintillation solution (Lipoluma, Lumac Co.) were added. Radioactivity of the upper phase was measured by 1450 Microbeta liquid scintillation counter (Wallacoy).
(§5) hACAT activity was calculated based on the radioactivity, the amount of synthesized cholesteryl oleated, measured above and expressed as a defined unit, pico mole per 1 mg of protein for 1 minute (pico mole/minute/mg protein).

hACAT-2 = molecular target: T2, hACAT-2 (Homo sapiens, UniProt O75908); assay: as above; type: biochemical; settings: read-out: Inhibitory activity at 100 μM (%) hACAT2
T2 construct: made in house; host or cells: Hi5 insect cells (baculovirus; virus produced in sf9), microsome fraction
T2 sequence (O75908 1-522): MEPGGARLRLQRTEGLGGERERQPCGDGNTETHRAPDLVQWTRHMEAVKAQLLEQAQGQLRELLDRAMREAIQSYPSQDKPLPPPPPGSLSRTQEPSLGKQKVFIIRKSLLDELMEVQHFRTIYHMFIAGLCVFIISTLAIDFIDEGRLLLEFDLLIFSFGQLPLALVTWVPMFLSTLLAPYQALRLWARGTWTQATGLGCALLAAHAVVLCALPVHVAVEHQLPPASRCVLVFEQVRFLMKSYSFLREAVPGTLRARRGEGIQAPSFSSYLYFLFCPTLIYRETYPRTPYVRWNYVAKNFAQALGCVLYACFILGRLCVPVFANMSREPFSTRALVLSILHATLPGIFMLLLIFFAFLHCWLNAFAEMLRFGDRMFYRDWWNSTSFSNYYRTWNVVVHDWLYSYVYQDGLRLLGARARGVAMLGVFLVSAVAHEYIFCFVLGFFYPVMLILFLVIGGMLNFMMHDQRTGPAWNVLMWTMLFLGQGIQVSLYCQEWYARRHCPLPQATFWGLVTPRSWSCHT
Protocol: as §1, §2, §3, §4, §5

Row | IC50 (LDL) [µM] | inhibition at 100 µM (hACAT-1) [%] | inhibition at 100 µM (hACAT-2) [%] | Inhibitory activity at 100 μM (%) hACAT1 (hACAT-1; 100 µM) [%] | Structure (SMILES)
1 | 43 | 29.7 | 22.9 | – | C=C(C)c1cc2cc3c(cc2o1)OC[C@@]1(O)c2ccc(O)cc2O[C@@H]31 [Formula 2, (6aS,11aS)-2-(pro-1-pene-2-yl)-6a,11a-dihydro-6H-benzofuro[3,2-c]furo[3,2-g]chromene-6a,9-diol]
2 | 51.8 | 35.2 | 20.3 | – | COc1ccc2c(c1)O[C@H]1c3c(cc(O)c(CC=C(C)C)c3OC)OC[C@@]21O [Formula 3]
3 | 4.5 | 14.9 | 7.9 | – | COc1cc(O)cc2oc(=O)c3c4ccc(O)cc4oc3c12 [Formula 4, isotrifoliol]
4 | 1 | 85.8 | 67.4 | 85.9 | CC(C)=CCc1c(O)ccc2c1oc(=O)c1c3ccc(O)cc3oc21 [Formula 5, phaseol]

Source: US20160067209A1, “PTEROCARPAN COMPOUND OR PHARMACEUTICALLY ACCEPTABLE SALT THEREOF AND PHARMACEUTICAL COMPOSITION FOR PREVENTION OR TREATMENT OF METABOLIC DISEASE OR COMPLICATION THEREOF, OR FOR ANTIOXIDANT CONTAINING THE SAME AS AN ACTIVE INGREDIENT” (KOREA RESEARCH INSTITUTE OF BIOSCIENCE AND BIOTECHNOLOGY, priority 2010, published 2016)
